Reference: PMC2361651 (British Journal of Cancer, 2005)

Columns and labels:
[1] = Plasma pharmacokinetics of SU5416 and metabolites in Phase I patients (HPLC UV); format: in vivo, human; details: plasma, patients
Method: Samples were taken prior to treatment infusion, 15 min into the infusion, at completion of the infusion and then at 5, 10, 20, 30, 45, 60, 120 and 240 min following the infusion. […] At the designated times, 4.0 ml of blood were collected into a lithium heparin tube, gently inverted and placed on ice to maintain the sample at 2–8°C. All samples were immediately centrifuged at 6000 r.p.m. at 4°C for 10 min, the supernatant divided between two 1.5 ml Nalgene cryovials and snap frozen in liquid nitrogen. Separated plasma samples were subsequently stored at −70°C until analysis.
Pharmacokinetic analysis was performed using a fully validated HPLC UV method ([Stopeck et al, 2002]). Plasma samples, standards (25–2000 ng ml^−1) and quality controls spiked with internal standards were extracted with acetonitrile. Following centrifugation, drying and reconstitution in 200 μl mobile phase, 20 μl were analysed by HPLC UV. Chromatography was carried out using a C18 analytical column, with a gradient mobile phase containing acetonitrile and 10 mM ammonium formate at pH 2.6. The flow rate was 0.8 ml min^−1 and the run-time 21 min. Detection was via UV absorption at a wavelength of 440 nm. The accuracy of the assay, reflected in relative error of measured concentration to theoretical (prepared) concentrations, was between 0.9 and 5.6% for all quality control samples.
Pharmacokinetic parameters were evaluated using WinNonLin Software®.

[2] = system: receptor tyrosine kinases inhibited by the parent compound; set-up: method as in Mendel et al, 2000; details: ref Mendel et al, 2000; cited from earlier work

metabolite as proportion of the total [1]: 5.2%
SMILES: Cc1cc(CO)[nH]c1/C=C1\C(=O)Nc2ccccc21 [SU9838]
distribution and clearance of metabolite [1]: large volume of distribution and rapid clearance
inhibitory activity for the receptor tyrosine kinases inhibited by the parent compound [2]: Neither metabolite shows inhibitory activity
